From patent US9901646B2, “Methods for induction of antigen-specific immune tolerance” (École Polytechnique Fédérale de Lausanne (EPFL), priority 2010, dated 2018)
Each block holds one molecule with its values, some of them ahead of it. Where no end group is shown, it is not given here. 8‑arm PEG = 8-arm polyethylene glycol (PEG) dendrimer, conjugated via pyridyldisulfide groups to cysteine thiols

Legend:
[1] = test system: human erythrocytes (type A and B); assay: Binding of bacteria displaying peptide to cells, flow cytometry; conditions: peptide displayed on bacteria, 1 h at 4° C.
Protocol: Method: To characterize specificity, individual sequenced clones were analyzed using cytometry for binding toward human erythrocytes (type A and B), mouse erythrocytes, HEK293T cells and HUVECs. For binding assays, 10^6 mammalian cells were scanned on an AccuriA6 after co-incubation with 5×10^7 bacteria for 1 h at 4° C. followed by three washes in HFS (5% HSA, 2% FBS in PBS). The percentage of cells with green bacteria bound was calculated using FLOWJO Software.

human erythrocytes = assay: Erythrocyte binding of APC-peptide conjugates by flow cytometry; conditions: 1 μM APC-peptide conjugate, 37 C, 45 min
Protocol: Peptides were ordered and custom-synthesized via standard fmoc solid-phase peptide synthesis from PolyPeptide Group (Strasbourg, France). 10 equivalents of peptide dissolved in 3 M guanidine-HCl were added to 2 mg/mL maleimide-activated APC (InnovaBiosciences, Cambridge, UK) in PBS. Following a 4 h incubation at 4° C., the reaction was desalted on a 2 mL ZEBA Desalting Column (Thermo Scientific) and stored at 4° C.
Freshly isolated human blood was dissolved 100-fold into PBS supplemented with 20 mg/mL BSA. 5×10^5 erythrocytes were added to 150 μL of 1 μM APC-peptide conjugate and incubated at 37 C for 45 min. Cells were washed extensively in PBS+20 mg/mL BSA, and analyzed for APC fluorescence on a CyAn ADP Flow cytometer (Beckman Coulter).

mouse erythrocytes = assay: scFv binding to erythrocytes, flow cytometry with anti-6×His-PE
Protocol: FIG. 19 presents experimental results as a flow cytometry histogram. Mouse erythrocytes were incubated with TER119-SIINFEKL (grey filled histogram) or albumin (empty histogram). Fluorescent signal comes from the anti-6×His-PE antibody used in detection of the scFv.

OT-I CD8+ T cells [2] = assay: OT-I tolerance and challenge model (Example 21); assay type: in vivo, mouse
Protocol: 3×10^5 CFSE-labeled OT-I CD8^+ T cells were injected into CD45.1^+ recipient mice as described above. 1 and 6 d following adoptive transfer, mice were intravenously administered 10 μg of ERY1-OVA or OVA, or an equimolar dose of TER119-SIINFEKL in 100 μL, saline into the tail vein. 15 d following adoptive transfer, mice were challenged with 5 μg OVA and 25 ng ultra-pure Escherichia coli LPS (InvivoGen) in 25 μL intradermally into each rear leg pad (Hock method, total dose of 10 μg OVA and 50 ng LPS). Mice were sacrificed 4 d following challenge, and spleen and draining lymph node cells were isolated for restimulation. For flow cytometry analysis of intracellular cytokines, cells were restimulated in the presence of 1 mg/mL OVA or 1 μg/mL SIINFEKL peptide (Genscript) for 3 h. Brefeldin-A (Sigma, 5 μg/mL) was added and restimulation resumed for an additional 3 h prior to staining and flow cytometry analysis.
(§1) The following anti-mouse antibodies were used for flow cytometry: CD1d Pacific Blue, CD3E PerCP-Cy5.5, CD8a PE-Cy7, CD45.2 Pacific Blue, IFNγ-APC, CD8a APC-eF780, (all from eBioscience), in addition to fixable live/dead dye (Invitrogen), and annexin-V-Cy5 labeling kit (BioVision). Samples were analyzed on a CyAn ADP flow cytometer (Beckman Coulter). Cells were washed first with PBS, stained for 20 min on ice with live/dead dye, blocked for 20 min on ice with 24G2 hybridoma medium, surface stained for 20 min on ice, fixed in 2% paraformaldehyde for 20 min ice, intracellularly stained in the presence of 0.5% saponin for 45 min on ice, followed by a final wash prior to analysis. For apoptosis staining, annexin-V-Cy5 was added 5 min prior to analysis.

OT-I CD8+ T cells [3] = assay: OT-I CD8+ T cell adoptive transfer, short-term proliferation study (Example 21); assay type: in vivo, mouse; conditions: intravenous
Protocol: CD8^+ T cells from OT-I (CD45.2^+) mouse spleens were isolated using a CD8 magnetic bead negative selection kit (Miltenyi Biotec) as per the manufacturer's instructions. Freshly isolated CD8^+ OT-I cells were resuspended in PBS and labeled with […] carboxyfluorescein succinimidyl ester (CFSE, Invitrogen) for 6 min at room temperature, and the reaction was quenched for 1 min with an equal volume of IMDM with 10% FBS (Gibco). Cells were washed, counted, and resuspended in pure IMDM prior to injection. 3×10^6 CFSE-labeled CD8^+ OT-I cells were injected intravenously into the tail vein of recipient CD45.1^+ mice. For short-term proliferation studies, 10 μg of ERY1-OVA or OVA, or an equimolar dose of TER119-SIINFEKL in 100 μL volume was injected 24 h following adoptive transfer. Splenocytes were harvested 5 d following antigen administration and stained for analysis by flow cytometry.
as §1

glycophorin-A (GYPA) = biological target: T1, glycophorin-A (GYPA) (Mus musculus, UniProt P14220); assay: Affinity pull-down with biotinylated ERY1 peptide and photoactivatable crosslinker, Western blot; assay type: binding; conditions: whole erythrocytes, UV crosslinking, streptavidin and anti-GYPA Western blot
T1 construct: GYPA is naturally expressed and presented as part of a complex comprised of several membrane and cytoskeletal proteins; endogenous in cells; host or cells: whole mouse erythrocytes
Protocol: Method: The ERY1 (H2N-WMVLPWLPGTLDGGSGCRG-CONH2) (SEQ ID NO:19) and mismatch (H2N-PLLTVGMDLWPWGGSGCRG-CONH2) (SEQ ID NO:20) peptides were synthesized using standard solid-phase f-moc chemistry on TGR resin. The peptide was cleaved from the resin in 95% tri-fluoroacetic acid, 2.5% ethanedithiol, 2.5% water, and precipitated in ice-cold diethyl ether. Purification was conducted on a Waters preparative HPLC-MS using a C18 reverse phase column.
In brief, peptides were solubilized in PBS/DMF and reacted with 1.05 equivalents of Mts-atf-biotin overnight at 4° C. Following clarification of the reaction by centrifugation, biotinylated peptide was incubated with erythrocytes at in PBSA-50 for 1 h at 37° C., cells were washed twice in fresh PBS, and were UV irradiated at 365 nm for 8 min at room temperature. Cells were lysed by sonication and the lysate was purified using streptavidin-coated magnetic beads (Invitrogen). The eluate was run on an SDS-PAGE and transferred to a PVDF membrane, and immunoblotted with streptavidin-HRP (R&D Systems) or anti-mouse GYPA.

circulating erythrocytes = assay: 8-arm PEG constructs binding to circulating erythrocytes after intravenous injection, flow cytometry; assay type: in vivo, mouse; conditions: flow cytometry
From the text: FIG. 17 presents experimental results depicting erythrocyte cell-surface half-life of 8-arm PEG-ERY1 (filled circles) and 8-arm PEG-MIS (empty boxes), determined by flow cytometry.

[4] = mouse, in vivo, iv, 150 ug
Protocol: The Swiss Vaud Veterinary Office previously approved all animal procedures. While under anesthesia with ketamine/xylasine, the mouse tail was warmed in 42° C. water and 150 μg of protein was injected in a 100 μL volume directly into the tail vein. Care was taken to ensure mice were kept at 37° C. while under anesthesia. Blood was drawn by a small scalpel incision on the base of the tail, and diluted 10-fold in PBSA-5, 10 mM EDTA, and stored at −20° C. until further analysis. Blood samples were analyzed for MBP concentration by sandwich ELISA. In brief, monoclonal mouse anti-MBP was used as the capture antibody, polyclonal rabbit anti-MBP as the primary antibody, and goat anti-rabbit-HRP as the secondary antibody. The data were analyzed in PRISM4 using standard pharmacokinetic compartmental analysis, using Eq. 1 and Eq. 2 A=A0e^−Kt Equation 1: Standard one-compartment model
where A is the amount of free drug in the body at time t and A0 is the initial amount of drug at time zero. A=ae^−at+be^−βt Equation 2: Standard two-compartment model
where A is the amount of free drug in the central compartment at time t.

[5] = test system: mouse erythrocytes (glycophorin-A on the erythrocyte surface); assay: Binding of OVA conjugates to erythrocytes in vitro, flow cytometry, equilibrium binding
From the text: To obtain strong and specific biophysical binding of an antigen to erythrocytes, we used a synthetic 12 amino acid peptide (ERY1) that we discovered by phage display to specifically bind to mouse glycophorin-A (Kontos and Hubbell, 2010). In this investigation, the model antigen OVA was used with a transgenic mouse strain (OT-I) whose CD8^+ T cell population expresses the T cell receptor specific for the MHC I immunodominant OVA peptide SIINFEKL (SEQ ID NO:3). The ERY1 peptide was chemically conjugated to OVA to create an OVA variant (ERY1-OVA) that binds mouse erythrocytes with high affinity and specificity (FIG. 8a). High-resolution confocal microscopy confirmed earlier observations concerning ERY1 binding (Kontos and Hubbell, 2010), namely localization to the cell membrane equatorial periphery, with no intracellular translocation of the ERY1-conjugated protein.

erythrocytes (CD45−) = assay: In vivo binding to circulating erythrocytes after intravenous administration; design: species or system mouse
Protocol: 150 μg of ERY1-OVA or OVA in 0.9% saline (B. Braun) in a volume of 100 μL was injected intravenously into the tail of 8-12 week old female C57BL/6 mice while under anesthesia with isoflurane. […] At predetermined time points, 5 μL of blood was taken from a small incision on the tail, diluted 100-fold into 10 mM EDTA in PBS, washed three times with PBS with 10 mg/mL BSA, and analyzed for OVA content by flow cytometry and ELISA. OVA was quantified by sandwich ELISA, using a mouse monoclonal anti-OVA antibody (Sigma) for capture, a polyclonal rabbit anti-OVA antibody (AbD SEROTEC) for detection, a goat anti-rabbit-IgG-HRP antibody (BioRad) for final detection, followed by TMB substrate (GE Life Sciences). Hematological characterization was performed on an ADVIVA 2120 Hematology System (Siemens). Erythrocyte-bound ERY1-GST was detected by incubating labeled cells with goat anti-GST (GE Healthcare Life Sciences), followed by incubation with AlexaFluor488 donkey anti-goat (Invitrogen), and analyzed by flow cytometry. For biodistribution studies, 20 μg of ERY1-APC or MIS-APC was injected intravenously into the tail vein of 8-12 week old female C57BL/6 mice as described above. Mice were sacrificed at predetermined time points, and the spleen, blood, and liver were removed. […]

[6] = following challenge with OVA and LPS
[7] = i.v. 1 and 6 days after adoptive transfer, 4 d after OVA/LPS challenge

binding to human erythrocytes as conjugates of APC (human erythrocytes): bound to human erythrocytes
Molecule: GQSGQTYFCTPTLLGQYCSVGSSGGS (Erythrocyte Binding Peptide) [ERY64]
binding to human erythrocytes, specificity as compared to 293T cells and HUVECs [1]: bound specifically to human erythrocytes

Molecule: TER119-SIINFEKL: recombinant fusion of scFv TER119 to the MHC-I immunodominant domain of OVA (SGLEQLESIINFEKL; epitope)
binding to mouse erythrocytes (mouse erythrocytes): bound mouse erythrocytes | fewer IFNγ-expressing cells in lymph nodes compared to challenge control mice (OT-I CD8+ T cells [2]; [6]): 33 fold | fewer IFNγ-expressing cells in lymph nodes compared to mice treated with an equivalent dose of OVA (OT-I CD8+ T cells [2]; [6]): over 14 fold | fewer OT-I CD8+ T cells in draining lymph nodes as compared to OVA-treated mice (OT-I CD8+ T cells [2]; [7]): over 13 fold | fewer OT-I CD8+ T cells in draining lymph nodes than challenge control mice (OT-I CD8+ T cells [2]; [7]): over 42 fold | PD-1+ proliferating OT-I CD8+ T cells compared to OVA (OT-I CD8+ T cells [3]; 10 μg or equimolar dose): much higher numbers | annexin-V+ proliferating OT-I CD8+ T cells compared to OVA (OT-I CD8+ T cells [3]; 10 μg or equimolar dose): much higher numbers | OT-I CD8+ T cell proliferation (CFSE dilution) compared to ERY1-OVA or OVA (OT-I CD8+ T cells [3]; spleen, 5 days, dose equimolar to 10 μg OVA): markedly enhanced

Molecule: GQSGQSVWYSSRGNPLRCTGGSSGGS (Erythrocyte Binding Peptide) [ERY162]
binding to human erythrocytes, specificity as compared to 293T cells and HUVECs [1]: bound specifically to human erythrocytes

Molecule: GQSGQPNSRWIYMTPLSPGIYRGSSGGS (Erythrocyte Binding Peptide) [ERY19]
binding to human erythrocytes, specificity as compared to 293T cells and HUVECs [1]: bound specifically to human erythrocytes

binding to human erythrocytes as conjugates of APC (human erythrocytes): bound to human erythrocytes
Molecule: GQSGQFCTVIYNTYTCVPSSGSSGGS (Erythrocyte Binding Peptide) [ERY141]
binding to human erythrocytes, specificity as compared to 293T cells and HUVECs [1]: bound specifically to human erythrocytes

molecular target on the erythrocyte membrane / conjugation to erythrocyte proteins (glycophorin-A (GYPA)): glycophorin-A (GYPA)
Molecule: WMVLPWLPGTLD (not fully specified (C-terminus)) [ERY1, synthesized as H2N-…-CONH2]

binding to circulating erythrocytes upon intravenous injection (circulating erythrocytes): not
Molecule: 8-arm PEG-MIS: 8-arm PEG conjugate harboring the non-specific MIS peptide (H-PLLTVGMDLWPWGGSGC(8‑arm PEG)RG-NH2; also: 8-arm PEG conjugate (multivalent), linkage to PEG not given here) [reference compound]

Molecule: GQSGQYICTSAGFGEYCFIDGSSGGS (Erythrocyte Binding Peptide) [ERY59]
binding to human erythrocytes, specificity as compared to 293T cells and HUVECs [1]: bound specifically to human erythrocytes

Molecule: maltose binding protein [wild-type MBP]
half-life [4]: 55.2 min | α half life [4]: 24.6 min | β half life [4]: 66.6 min

Molecule: PLLTVGMDLWPW (Control peptide) [mismatch peptide, same amino acid residues as ERY1, scrambled, reference compound]
molecular target on the erythrocyte membrane / conjugation to erythrocyte proteins (glycophorin-A (GYPA)): failed to conjugate to any erythrocyte proteins

binding to human erythrocytes as conjugates of APC (human erythrocytes): bound to human erythrocytes
Molecule: GQSGHWHCQGPFANWVGSSGGS (Erythrocyte Binding Peptide) [ERY123]
binding to human erythrocytes, specificity as compared to 293T cells and HUVECs [1]: bound specifically to human erythrocytes

binding to erythrocytes (flow cytometry) [5]: did not display any measureable affinity
B1: OVA conjugated with only the crosslinking molecule: OVA carrying only the SMCC crosslinker (conjugate)
chain: GSIGAASMEFCFDVFKELKVHHANENIFYCPIAIMSALAMVYLGAKDSTRTQINKVVRFDKLPGFGDSIEAQCGTSVNVHSSLRDILNQITKPNDVYSFSLASRLYAEERYPILPEYLQCVKELYRGGLEPINFQTAADQARELINSWVESQTNGIIRNVLQPSSVDSQTAMVLVNAIVFKGLWEKAFKDEDTQAMPFRVTEQESKPVQMMYQIGLFRVASMASEKMKILELPFASGTMSMLVLLPDEVSGLEQLESIINFEKLTEWTSSNVMEERKIKVYLPRMKMEEKYNLTSVLMAMGITDVFSSSANLSGISSAESLKISQAVHAAHAEINEAGREVVGSAEAGVDAASVSEEFRADHPFLFCIKHIATNAVLFFGRCVSP

B2: ovalbumin (protein)
chain: B1 chain
notes: model antigen
binding to circulating eryptotic (annexin-V+) and healthy (annexin-V−) erythrocytes (erythrocytes (CD45−)): nonbinding
